Read-outs that look alike come from different tables or passages of the source.
Biological target: T1, ICl,SWELL (SWELL1-LRRC8 channel) in HEK-293 cells (Homo sapiens, UniProt Q8IWT6)
T1 construct: applied when the endogenous HEK-293 cell ICl,SWELL current density reached 30 pA/pF; endogenous in cells; host or cells: HEK-293 (ATCC, #CRL-1573)
T1 sequence (Q8IWT6 1-810): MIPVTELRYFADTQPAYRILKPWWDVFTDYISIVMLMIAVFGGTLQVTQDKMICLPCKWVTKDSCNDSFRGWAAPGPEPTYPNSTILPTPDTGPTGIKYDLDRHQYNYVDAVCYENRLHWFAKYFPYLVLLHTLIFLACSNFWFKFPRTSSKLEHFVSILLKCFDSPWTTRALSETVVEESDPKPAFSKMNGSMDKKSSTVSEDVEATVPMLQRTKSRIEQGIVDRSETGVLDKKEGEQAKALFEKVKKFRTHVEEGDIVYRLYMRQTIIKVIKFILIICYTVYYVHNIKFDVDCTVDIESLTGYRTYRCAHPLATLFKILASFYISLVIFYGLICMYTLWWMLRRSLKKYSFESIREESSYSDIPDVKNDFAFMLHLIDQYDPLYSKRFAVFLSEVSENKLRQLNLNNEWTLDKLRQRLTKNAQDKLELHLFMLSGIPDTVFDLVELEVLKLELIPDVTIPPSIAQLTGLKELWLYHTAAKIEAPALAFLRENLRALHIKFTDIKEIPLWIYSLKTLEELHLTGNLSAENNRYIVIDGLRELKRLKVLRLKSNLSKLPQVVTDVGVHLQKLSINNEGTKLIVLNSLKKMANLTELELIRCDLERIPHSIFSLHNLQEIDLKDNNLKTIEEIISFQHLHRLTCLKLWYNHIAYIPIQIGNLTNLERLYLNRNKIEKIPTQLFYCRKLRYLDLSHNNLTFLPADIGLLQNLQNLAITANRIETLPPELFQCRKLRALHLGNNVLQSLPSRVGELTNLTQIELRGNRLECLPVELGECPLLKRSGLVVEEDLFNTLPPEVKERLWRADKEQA
Assay: ICl,SWELL inhibition after hypotonic activation (open channel), patch-clamp
Type: cell-based
Conditions: for inhibition of channels first opened by hypotonic activation: 1 μM
Experimental: Patch-clamp recordings of β-cells, 3T3-F442A adipocytes, and mature human adipocytes were performed as described previously[24],[28]. Briefly, all patch-clamp experiments were conducted at room temperature using either an Axopatch 200B amplifier or a MultiClamp 700B amplifier paired to a Digidata 1550 digitizer. Data were acquired using pClamp 10.4 software. For hypotonic swelling, extracellular solution consisted of the following (in mM): 90 NaCl, 2 CsCl, 1 MgCl2, 1 CaCl2, 10 HEPES, 10 mannitol, pH 7.4 with NaOH (210 mOsm/kg). The isotonic extracellular solution consisted of the same composition above but with 110 mM instead of 10 mM mannitol (300 mOsm/kg). The swell-activated current was elicited by perfusing cells with a hypotonic solution (210 mOsm/kg). […] For perforated-patch recordings in isolated human adipocytes, the intracellular solution was as above but without ATP and GTP, and contained 360 μg/ml Amphotericin B (Sigma). The holding potential was 0 mV. Voltage ramps from −100 to +100 mV (at 0.4 mV/ms) were applied every 4 s. The sampling interval was 100 μs and filtered at 10 kHz. For perforated-patch recordings, cells with a membrane resistance below 1 GΩ or access resistance above 20 MΩ were discarded. […]

[1] = HEK-293 cells, hypotonic (210 mOsm) stimulation, outward current, compound applied at 30 pA/pF, read-out: IC50 for ICl,SWELL inhibition

Structure (SMILES)	IC50 [1] [µM]	IC50 [µM]	inhibition of channels first opened by hypotonic activation	concentrations required to effectively inhibit channels when first opened by hypotonic activation (HEK-293 cells) [µM]	ICl,SWELL inhibitory activity compared to SN-401 (HEK-293 cells)
CCCCC1(C2CCCC2)Cc2cc(OCC(=O)O)c(Cl)c(Cl)c2C1=O (centres unmarked) [Inactive 1, 2-((2-butyl-6,7-dichloro-2-cyclopentyl-1-oxo-2,3-dihydro-1H-inden-5-yl)oxy)acetic acid]	35.5	–	–	–	–
CCCCC1(C2CCCC2)Cc2cc(OCCCC(=O)O)c(Cl)c(Cl)c2C1=O (centres unmarked) [SN-401, 4-((2-butyl-6,7-dichloro-2-cyclopentyl-1-oxo-2,3-dihydro-1H-inden-5-yl)oxy)butanoic acid]	–	3.9	relatively ineffective	6 to 10	–
CCCCC1(C2CCCC2)Cc2cc(OCCCCCC(=O)O)c(Cl)c(Cl)c2C1=O (centres unmarked) [SN-406, 6-((2-butyl-6,7-dichloro-2-cyclopentyl-1-oxo-2,3-dihydro-1H-inden-5-yl)oxy)hexanoic acid]	3.1	–	relatively ineffective	6 to 10	increased ICl,SWELL inhibitory activity

— paper PMC8831520, “Small molecule SWELL1 complex induction improves glycemic control and nonalcoholic fatty liver disease in murine Type 2 diabetes” (Nature Communications, 2022)
